# Test results from ChEMBL document CHEMBL1130913, “Synthesis and antibacterial in vitro activity of novel analogues of nematophin” (1998).
# Legend:
# [1] = test system: Staphylococcus aureus; test: In vitro inhibitory activity in iso sensitest agar against Staphylococcus aureus strain ATCC 6538 in addition with 0.5%blood; format: functional
# [2] = test system: Staphylococcus intermedius; test: In vitro inhibitory activity in iso sensitest agar against Staphylococcus intermedius strain ATCC 9503 in addition with 0.5%serum; format: functional
# [3] = test system: Staphylococcus hyicus; test: In vitro inhibitory activity in iso sensitest agar against Staphylococcus hyicus strain ATCC 9621; format: functional
# [4] = test system: Staphylococcus intermedius; test: In vitro inhibitory activity in iso sensitest agar against Staphylococcus intermedius strain ATCC 9503 in addition with 5%serum; format: functional
# [5] = test system: Staphylococcus intermedius; test: In vitro inhibitory activity in iso sensitest agar against Staphylococcus intermedius strain ATCC 9503; format: functional
# [6] = test system: Staphylococcus aureus; test: In vitro inhibitory activity in iso sensitest agar against Staphylococcus aureus strain ATCC 6538 in addition with 0.5%serum; format: functional
# [7] = test system: Staphylococcus hyicus; test: In vitro inhibitory activity in iso sensitest agar against Staphylococcus hyicus strain ATCC 9622 in addition with 0.5%serum; format: functional
# [8] = test system: Staphylococcus aureus; test: In vitro inhibitory activity in iso sensitest agar against Staphylococcus aureus strain ATCC 6538; format: functional
# [9] = test system: Staphylococcus aureus; test: In vitro inhibitory activity in iso sensitest agar against Staphylococcus aureus strain ATCC 6538 in addition with 5%blood; format: functional
# [10] = test system: Staphylococcus aureus; test: In vitro inhibitory activity in iso sensitest agar against Staphylococcus aureus strain ATCC 6538 in addition with 5%serum; format: functional
# [11] = test system: Staphylococcus intermedius; test: In vitro inhibitory activity in iso sensitest agar against Staphylococcus intermedius strain ATCC 9503 in addition with 0.5%blood; format: functional
# [12] = test system: Staphylococcus hyicus; test: In vitro inhibitory activity in iso sensitest agar against Staphylococcus hyicus strain ATCC 9621 in addition with 5%serum; format: functional
# [13] = test system: Staphylococcus intermedius; test: In vitro inhibitory activity in iso sensitest agar against Staphylococcus intermedius strain ATCC 9503 in addition with 5%blood; format: functional
# [14] = test system: Staphylococcus aureus; test: In vitro inhibitory activity in iso sensitest agar against Staphylococcus aureus strain ATCC 25923 in addition with 5%serum; format: functional
# [15] = test system: Staphylococcus hyicus; test: In vitro inhibitory activity in iso sensitest agar against Staphylococcus hyicus strain ATCC 9622; format: functional
# [16] = test system: Staphylococcus aureus; test: In vitro inhibitory activity in iso sensitest agar against Staphylococcus aureus strain ATCC 25923; format: functional
# [17] = test system: Staphylococcus hyicus; test: In vitro inhibitory activity in iso sensitest agar against Staphylococcus hyicus strain ATCC 9622 in addition with 5%serum; format: functional
# [18] = test system: Staphylococcus hyicus; test: In vitro inhibitory activity in iso sensitest agar against Staphylococcus hyicus strain ATCC 9621 in addition with 5%blood; format: functional
# [19] = test system: Staphylococcus intermedius; test: In vitro inhibitory activity in iso sensitest agar against Staphylococcus intermedius strain ATCC 29663 in addition with 5%serum; format: functional
# [20] = test system: Staphylococcus aureus; test: In vitro inhibitory activity in iso sensitest agar against Staphylococcus aureus strain ATCC 29213; format: functional
# [21] = test system: Staphylococcus intermedius; test: In vitro inhibitory activity in iso sensitest agar against Staphylococcus intermedius strain ATCC 29663; format: functional
# [22] = test system: Staphylococcus hyicus; test: In vitro inhibitory activity in iso sensitest agar against Staphylococcus hyicus strain ATCC 9622 in addition with 0.5%blood; format: functional
# [23] = test system: Staphylococcus aureus; test: In vitro inhibitory activity in iso sensitest agar against Staphylococcus aureus strain ATCC 29213 in addition with 5%serum; format: functional
# [24] = test system: Staphylococcus hyicus; test: In vitro inhibitory activity in iso sensitest agar against Staphylococcus hyicus strain ATCC 9621 in addition with 0.5%blood; format: functional
# [25] = test system: Staphylococcus hyicus; test: In vitro inhibitory activity in iso sensitest agar against Staphylococcus hyicus strain ATCC 9622 in addition with 5%blood; format: functional
# [26] = test system: Staphylococcus hyicus; test: In vitro inhibitory activity in iso sensitest agar against Staphylococcus hyicus strain ATCC 9621 in addition with 0.5%serum; format: functional
# [27] = test system: Staphylococcus aureus; test: In vitro inhibitory activity in iso sensitest agar against Staphylococcus aureus strain ATCC 6538 in addition with 5%serum
# [28] = test system: Staphylococcus aureus; test: In vitro inhibitory activity in iso sensitest agar against Staphylococcus aureus strain ATCC 6538 in addition with 0.5%serum
# [29] = test system: Staphylococcus aureus; test: In vitro inhibitory activity in iso sensitest agar against Staphylococcus aureus strain ATCC 6538 in addition with 5%blood
# [30] = test system: Staphylococcus hyicus; test: In vitro minimum inhibitory concentration in iso sensitest agar against Staphylococcus hyicus strain ATCC 9622; format: functional
# [31] = test system: Staphylococcus hyicus; test: In vitrIn vitro inhibitory activity in iso sensitest agar against Staphylococcus hyicus strain ATCC 9621; format: functional
MIC [3] [µg/mL],MIC [4] [µg/mL],MIC [5] [µg/mL],MIC [8] [µg/mL],MIC [10] [µg/mL],MIC [12] [µg/mL],MIC [14] [µg/mL],MIC [15] [µg/mL],MIC [16] [µg/mL],MIC [17] [µg/mL],MIC [19] [µg/mL],MIC [20] [µg/mL],MIC [21] [µg/mL],MIC [23] [µg/mL],also measured,SMILES
1,16,2,0.25,> 64,> 64,4,0.5,0.125,> 64,16,0.125,8,4,MIC [1]: > 128 µg/mL; MIC [2]: 8 µg/mL; MIC [6]: > 128 µg/mL; MIC [7]: 1 µg/mL; MIC [9]: > 128 µg/mL; MIC [11]: 1 µg/mL; MIC [13]: > 128 µg/mL; MIC [18]: > 128 µg/mL; MIC [22]: 0.125 µg/mL; MIC [24]: 0.25 µg/mL; MIC [25]: > 128 µg/mL; MIC [26]: > 128 µg/mL,CCC(C)C(=O)C(=O)NCCc1c[nH]c2ccccc12 (configuration not stated)
1,> 64,2,0.125,> 64,> 64,16,1,0.125,> 64,> 64,0.125,8,16,,CCC(C)C(=O)C(=O)NCCc1cn(Cc2ccccc2)c2ccccc12 (configuration not stated)
0.06,,0.5,0.015,> 32,> 32,16,0.06,0.015,> 32,32,0.015,2,16,MIC [1]: 0.06 µg/mL; MIC [27]: > 32 µg/mL; MIC [6]: 0.25 µg/mL; MIC [7]: 0.125 µg/mL; MIC [9]: > 128 µg/mL; MIC [11]: 0.06 µg/mL; MIC [28]: 2 µg/mL; MIC [18]: > 128 µg/mL; MIC [22]: 0.03 µg/mL; MIC [29]: > 128 µg/mL; MIC [24]: 0.03 µg/mL; MIC [25]: > 128 µg/mL; MIC [26]: 0.25 µg/mL,CCC(C)C(=O)C(=O)NCCc1cn(C)c2ccccc12 (configuration not stated)
0.25,,1,0.125,,,,0.03,0.25,,,0.25,2,,,CC(C)CC(=O)C(=O)NCCc1c[nH]c2ccccc12
1,> 32,2,0.03,> 32,> 32,16,0.5,0.03,> 32,> 32,0.03,4,8,,CCC(C)C(=O)C(=O)NCCc1cn(C(C)C)c2ccccc12 (configuration not stated)
1,> 64,2,1,> 64,> 64,> 64,2,2,> 64,> 64,2,> 64,> 64,,CC(C)CC(=O)C(=O)NCCc1cn(Cc2ccccc2)c2ccccc12
0.03,32,0.5,0.03,> 64,> 64,16,0.03,0.03,> 64,16,0.03,2,16,,CC(C)CC(=O)C(=O)NCCc1cn(C)c2ccccc12
,> 64,0.125,0.03,> 64,> 64,> 64,,0.06,> 64,> 64,0.06,1,> 64,MIC [30]: 0.015 µg/mL; MIC [31]: 0.06 µg/mL,CC(C)CC(=O)C(=O)NCCc1cn(-c2ccccc2)c2ccccc12
0.06,64,1,0.125,> 64,> 64,32,0.25,0.06,> 64,32,0.25,2,32,,CC(C)CC(=O)C(=O)NCCc1cn(C(C)C)c2ccccc12
1,,0.5,1,,,,0.5,,,,,,,,CCC(C)C(=O)C(=O)NC(C)Cc1c[nH]c2ccccc12 (configuration not stated)
